Columns and labels:
[1] = Wash test: malodor marker reduction on artificial body soil treated fabric, headspace GCMS; conditions: Table 5, vs control detergent nil antioxidant
Procedure: In order to test the efficiency of the antioxidants for malodor reduction, an artificial body soil (ABS) was prepared. The artificial body soil is a modified version of the soil from ASTM D4265-21. To prepare the ABS, the components of Table 1 were combined in an 8 oz. jar and heated to 70° C. until fully solubilized.
50/50 Cotton/poly interlock fabric (Style 7439 GB, Testfabrics, Inc.) was cut into 2 in×5 in swatches. Cut swatches were dosed with three equally spaced 0.36 mL portions of artificial body soil composition. Fabrics were then sealed together in a mylar bag and incubated at 37° C. for four to seven days prior to wash treatment.
Antioxidant solution was prepared by dissolving the antioxidant compound to be tested in methanol at 0.5% w/w. The antioxidant solution was dosed into the wash water (500 mL) using a micropipettor according to Table 3 to obtain the desired concentration of antioxidant in wash water required for the testing.
To 1 L wash beaker was added 0.4 g Tide Free and Gentle detergent, 500 mL of wash water (as prepared in Table 2) and the antioxidant solution as described in Table 3. The wash beaker was placed in a tergetometer. To the wash beaker was added two incubated fabric swatches (4 g) followed by one 11 in×11 in 50/50 Cotton/Poly interlock knit clean fabric swatch (16 g, Style 74390B, Testfabrics, Inc.), for a total liquor to fabric ratio of 25:1. The fabrics were then washed in the tergotometer for 15 minutes and spun dried for one minute in a spin dryer (Mini Spin Dryer Model LASD-1 available from The Laundry Alternative, Inc.). […] The tests were run in triplicate and an average malodor reduction percent was calculated. […]
The percent malodor reduction is determined by GCMS using an Agilent Intuvo 9000 GC equipped with an Agilent 7000D GC/TQ mass spectrometer and a Trajan PAL 3 RTC sampler equipped with a solid phase micro-extraction (SPME) probe. […] The extracted ion chromatogram for 3-methyl-2-butenal includes Quantifier: 84, Qualifier: 55, Ratio: 35.7. […]

[2] = Stability of antioxidants in AATCC HE liquid detergent (crystallization/precipitation); format: physicochemical; conditions: room temperature, after 3 days
From the text: A comparison of the stability of the antioxidants in standard AATCC detergent was made to highlight the benefit of having a plurality of molecules. Due to the highly crystalline nature of many commercially available antioxidants, they tend to be incompatible in detergent and will crystallize out of the detergent over time. The inventive compounds of this invention show improvements in remaining stable in liquid detergent.
The antioxidants in table 6 were combined with AATCC HE liquid detergent without optical brighteners (available from Test Fabrics, Inc., Item #0501001) in a 20 mL glass scintillation vial. The vials were placed in a sonicator for 1 hour, then heated to 80° C. for 30 minutes, whereby all samples were completely dissolved. The samples were removed from the oven, swirled briefly and hand then allowed to cool to room temperature. When the vials were cooled down to room temperature, the bottom of the vials were scratched with a metal spatula a few times to aide in the crystallization process, which can take a long time if left undisturbed. After an additional 3 days, observations were recorded as crystallization present or not present in Table 6.

- Precipitation Seen ([2]; loading 500 ppm in AATCC detergent): No
- Precipitation Seen ([2]; loading 1000 ppm in AATCC detergent): No
- Precipitation Seen ([2]; loading 5000 ppm in AATCC detergent): Yes
- Precipitation Seen ([2]; loading 10000 ppm in AATCC detergent): Yes
Structure (SMILES): Cc1cc(CCC(=O)OCCOCCOCCOC(=O)CCc2cc(C)c(O)c(C(C)(C)C)c2)cc(C(C)(C)C)c1O [Irganox 245, 2-[2-(2-{3-[3-(tert-Butyl)-4-hydroxy-5-tolyl]propionoxy}ethoxy)ethoxy]ethyl 3-[3-(tert-butyl)-4-hydroxy-5-tolyl]propionate]
- % Malodor marker reduction ([1]; 2 ppm in wash water): 44.0%
- % Malodor marker reduction ([1]; 4 ppm in wash water): 74.4%
- % Malodor marker reduction ([1]; 8 ppm in wash water): 89.5%

Reference: US20230089534A1, “PHENOLIC COMPOSITIONS FOR MALODOR REDUCTION” (Milliken & Company, priority 2021, published 2023)
